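These data come from cells grown in 96-well plates and exposed to compound for 48 hours at five concentrations. GI50 is the concentration that inhibits growth by half.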 Active and inactive are the calls of the source. Rule as the data show it: active = GI50 up to about 1.1 µM and inactive = higher.
Key:
Test in all cases: NCI anticancer screen, dose series, 48 h
[1] = tested on: SK-MEL-2
[2] = tested on: CAKI-1
[3] = tested on: HL-60
[4] = tested on: U-251
[5] = tested on: KM-20L2
[6] = tested on: SNB-19
[7] = tested on: SF-295
[8] = tested on: UACC-62
[9] = tested on: NCI-H460
[10] = tested on: UO-31
[11] = tested on: CCRF-CEM
[12] = tested on: RPMI-8226
[13] = tested on: A498
[14] = tested on: SF-539

| SMILES | GI50 [1] | GI50 [2] | GI50 [3] | GI50 [4] | GI50 [5] | GI50 [6] | GI50 [7] | GI50 [8] | GI50 [9] | GI50 [10] | GI50 [11] | GI50 [12] | GI50 [13] | GI50 [14] |
| --- | --- | --- | --- | --- | --- | --- | --- | --- | --- | --- | --- | --- | --- | --- |
| CCOc1ccc2c(c1)[n+]([O-])c(-c1ccc(Br)cc1)c(N)[n+]2[O-] | > 100 µM (inactive) | 27.2 µM (inactive) | 31.3 µM (inactive) | 47.3 µM (inactive) | 47 µM (inactive) | 57.3 µM (inactive) | > 100 µM (inactive) | 38.1 µM (inactive) | 47.3 µM (inactive) | 67.3 µM (inactive) | 53.1 µM (inactive) | 52.4 µM (inactive) | 45.3 µM (inactive) | 34.4 µM (inactive) |
| COC(=O)C1=Cc2cn(S(=O)(=O)c3ccc(C)cc3)c3cccc(c23)C(C=C(C)C)N1C(C)=O (stereo not given) | 4.68 µM (inactive) | 12.6 µM (inactive) | 5.56 µM (inactive) | 45.6 µM (inactive) | 69.3 µM (inactive) | 49 µM (inactive) | 6.11 µM (inactive) | 47.4 µM (inactive) | – | 26.1 µM (inactive) | 7.87 µM (inactive) | – | 68.9 µM (inactive) | > 100 µM (inactive) |
| Nc1ccn(CCCC(c2ccccc2)P(=O)(O)O)c(=O)n1 (stereo not given) | > 100 µM (inactive) | > 100 µM (inactive) | > 100 µM (inactive) | > 100 µM (inactive) | > 100 µM (inactive) | > 100 µM (inactive) | > 100 µM (inactive) | > 100 µM (inactive) | > 100 µM (inactive) | > 100 µM (inactive) | > 100 µM (inactive) | > 100 µM (inactive) | > 100 µM (inactive) | > 100 µM (inactive) |
| O=C(O)c1cc2c3ccccc3nc-2c[nH]1 | – | > 100 µM (inactive) | > 100 µM (inactive) | > 100 µM (inactive) | > 100 µM (inactive) | > 100 µM (inactive) | > 100 µM (inactive) | > 100 µM (inactive) | > 100 µM (inactive) | > 100 µM (inactive) | > 100 µM (inactive) | > 100 µM (inactive) | 10 µM (inactive) | > 100 µM (inactive) |
| CN(C)c1ccc(/C=N\N2C(=O)c3ccccc3C2=O)cc1 | > 100 µM (inactive) | > 100 µM (inactive) | > 100 µM (inactive) | – | > 100 µM (inactive) | > 100 µM (inactive) | > 100 µM (inactive) | > 100 µM (inactive) | > 100 µM (inactive) | > 100 µM (inactive) | > 100 µM (inactive) | > 100 µM (inactive) | > 100 µM (inactive) | > 100 µM (inactive) |
| Cc1[nH]c(O)nc1C(=O)c1ccc(-n2ccnc2)cc1 | > 100 µM (inactive) | > 100 µM (inactive) | > 100 µM (inactive) | > 100 µM (inactive) | > 100 µM (inactive) | > 100 µM (inactive) | > 100 µM (inactive) | > 100 µM (inactive) | > 100 µM (inactive) | > 100 µM (inactive) | – | > 100 µM (inactive) | > 100 µM (inactive) | > 100 µM (inactive) |
| O=C(N/C(=C/c1cccc([N+](=O)[O-])c1)c1nc2cc(Cl)ccc2[nH]1)c1ccccc1 | 16.1 µM (inactive) | 11.1 µM (inactive) | 1.99 µM (inactive) | 9.73 µM (inactive) | 10.5 µM (inactive) | 36.3 µM (inactive) | 36.9 µM (inactive) | 5.4 µM (inactive) | 10.4 µM (inactive) | 2.18 µM (inactive) | 1.07 µM (active) | 2.71 µM (inactive) | 13 µM (inactive) | 3.51 µM (inactive) |
| CC(C)(C)OC(=O)NCCc1cccc2c1oc1c(CCC(=O)O)cccc12 | > 100 µM (inactive) | > 100 µM (inactive) | > 100 µM (inactive) | > 100 µM (inactive) | > 100 µM (inactive) | > 100 µM (inactive) | > 100 µM (inactive) | > 100 µM (inactive) | > 100 µM (inactive) | > 100 µM (inactive) | > 100 µM (inactive) | > 100 µM (inactive) | > 100 µM (inactive) | > 100 µM (inactive) |
| Cc1cc2c(cc1C)[n+]([O-])c(C(=O)CC(=O)C(=O)Nc1ccccc1C)c(C)[n+]2[O-] | > 100 µM (inactive) | > 100 µM (inactive) | 62.8 µM (inactive) | > 100 µM (inactive) | > 100 µM (inactive) | > 100 µM (inactive) | > 100 µM (inactive) | > 100 µM (inactive) | 80.5 µM (inactive) | 96.6 µM (inactive) | 40.7 µM (inactive) | > 100 µM (inactive) | > 100 µM (inactive) | > 100 µM (inactive) |
| C[C@]12CCC3[C@@H](CC[C@@H]4c5nonc5CC[C@]34C)C1CCC2=O (stereo not given in full) | 20.3 µM (inactive) | 22.9 µM (inactive) | 15.7 µM (inactive) | 16 µM (inactive) | 25.7 µM (inactive) | 40.4 µM (inactive) | 24.1 µM (inactive) | 17.3 µM (inactive) | 19.2 µM (inactive) | 11.3 µM (inactive) | 21.8 µM (inactive) | 17 µM (inactive) | 21.4 µM (inactive) | 20.4 µM (inactive) |
| O=C(O)CN(c1ccc(F)cc1)S(=O)(=O)c1ccccc1 | > 100 µM (inactive) | > 100 µM (inactive) | > 100 µM (inactive) | > 100 µM (inactive) | > 100 µM (inactive) | > 100 µM (inactive) | > 100 µM (inactive) | > 100 µM (inactive) | > 100 µM (inactive) | > 100 µM (inactive) | > 100 µM (inactive) | > 100 µM (inactive) | > 100 µM (inactive) | > 100 µM (inactive) |
| O=C1C[C@@H]2[C@@H](CCC23CCCC3)N1 | > 100 µM (inactive) | > 100 µM (inactive) | > 100 µM (inactive) | > 100 µM (inactive) | > 100 µM (inactive) | > 100 µM (inactive) | > 100 µM (inactive) | > 100 µM (inactive) | > 100 µM (inactive) | > 100 µM (inactive) | > 100 µM (inactive) | > 100 µM (inactive) | > 100 µM (inactive) | > 100 µM (inactive) |
| COc1ccc2c(CCNC(=O)/C=C/c3ccccc3)c(C(C)=O)[nH]c2c1[N+](=O)[O-] | 17.4 µM (inactive) | 5.28 µM (inactive) | 4.31 µM (inactive) | 34.2 µM (inactive) | 19.1 µM (inactive) | 48.6 µM (inactive) | 3.87 µM (inactive) | 10.2 µM (inactive) | 6.12 µM (inactive) | 31.3 µM (inactive) | 5.35 µM (inactive) | 5.98 µM (inactive) | 17.3 µM (inactive) | 9.86 µM (inactive) |
| Cc1c(C)n(COCCO)c2ncnc(N)c12 | > 100 µM (inactive) | > 100 µM (inactive) | > 100 µM (inactive) | > 100 µM (inactive) | > 100 µM (inactive) | > 100 µM (inactive) | > 100 µM (inactive) | – | > 100 µM (inactive) | > 100 µM (inactive) | > 100 µM (inactive) | > 100 µM (inactive) | > 100 µM (inactive) | > 100 µM (inactive) |

From ChEMBL document CHEMBL1201862, “PubChem BioAssay data set” (2004)
